Measured values: patent US20050070554A1, “Substituted heterocyclic compounds and methods of use” (Amgen Inc., priority 2003, published 2005)
pIC50: −log10 of the molar value.

molecular target: T1, LCK (Homo sapiens, UniProt P06239); experiment: LCK-Homogeneous Time Resolved Fluorescent (HTRF) Kinase Assay; type: biochemical; conditions: not given
T1 construct: LCK KD GST (225-509); GST
Experimental: LCK-Homogeneous Time Resolved Fluorescent (HTRF) Kinase Assay:
The LCK HTRF assay begins with LCK in the presence of ATP phosphorylating the biotinylated peptide Gastrin. The reaction incubates for 90 min. To quench the assay detection reagents are added which both stop the reaction by diluting out the enzyme and chelating the metals due to the presence of EDTA. Once the detection reagents are added the assay incubates for 30 min to allow for equilibration of the detection reagents.
Buffer conditions are as follows: 50 mM HEPES pH 7.5, 50 mM NaCl, 20 mM MgCl, 5 mM MnCl, 2 mM DTT, 0.05% BSA.
The assay is quenched and stopped with 160 μL of detection reagent. Detection reagents are as follows: Buffer made of 50 mM Tris, pH 7.5, 100 mM NaCl, 3 mM EDTA, 0.05% BSA, 0.1% Tween20.
The assay plate is read in either a Discovery or a RubyStar.

T1 sequence (P06239 225-509): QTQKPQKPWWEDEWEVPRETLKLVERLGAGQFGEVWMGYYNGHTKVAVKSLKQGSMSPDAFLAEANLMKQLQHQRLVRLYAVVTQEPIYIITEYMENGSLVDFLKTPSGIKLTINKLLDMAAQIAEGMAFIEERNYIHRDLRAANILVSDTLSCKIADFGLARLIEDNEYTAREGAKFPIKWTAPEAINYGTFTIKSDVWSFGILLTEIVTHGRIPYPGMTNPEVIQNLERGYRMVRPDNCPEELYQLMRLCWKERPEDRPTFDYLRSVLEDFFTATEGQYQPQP

pIC50, > 6.00:
COc1cc(Nc2ncc3c(=O)n(-c4c(C)cccc4C)c4nc5ccccc5n4c3n2)cc(OC)c1OCCCN1CCN(C)CC1 [No. 9, 2-((3,5-bis(methyloxy)-4-((3-(4-methyl-1-piperazinyl)propyl)oxy)phenyl)amino)-6-(2,6-dimethylphenyl)pyrimido[5′,4′:5,6]pyrimido[1,2-a]-benzimidazol-5(6H)-one]
COc1cc(Nc2ncc3c(=O)n(-c4c(C)cccc4C)c4nc5ccccc5n4c3n2)ccc1OCCN1CCN(C)CC1 [No. 10, 6-(2,6-dimethylphenyl)-2-((3-(methyloxy)-4-((2-(4-methyl-1-piperazinyl)ethyl)oxy)phenyl)amino)-pyrimido[5′,4′:5,6]pyrimido[1,2-a]benzimidazol-5(6H)-one]
COc1cc(Nc2ncc3c(=O)n(-c4c(C)cccc4C)c4nc5ccccc5n4c3n2)ccc1N1CCN(C)CC1 [No. 19, 6-(2,6-dimethylphenyl)-2-((3-(methyloxy)-4-(4-methyl-1-piperazinyl)phenyl)amino)-pyrimido[5′,4′:5,6]pyrimido[1,2-a]benzimidazol-5(6H)-one]
COc1cc(Nc2ncc3c(=O)n(-c4c(C)cccc4C)c4nc5ccccc5n4c3n2)ccc1OCCCN1CCN(C)CC1 [No. 20, 6-(2,6-dimethylphenyl)-2-((3-(methyloxy)-4-((3-(4-methyl-1-piperazinyl)propyl)oxy)phenyl)amino)-pyrimido[5′,4′:5,6]pyrimido[1,2-a]benzimidazol-5(6H)-one]

same assay, conditions: read-out: activity in the LCK-HTRF Kinase Assay

pIC50, > 6.00:
Cc1cccc(C)c1-n1c(=O)c2cnc(Nc3ccc(N4CCNCC4)cc3)nc2n2c3ccccc3nc12 [No. 2, 6-(2,6-dimethylphenyl)-2-((4-(1-piperazinyl)phenyl)-amino)pyrimido[5′,4′:5,6]pyrimido[1,2-a]-benzimidazol-5(6H)-one]
Cc1cccc(C)c1-n1c(=O)c2cnc(Nc3ccc(N4CCN(C(=O)OC(C)(C)C)CC4)cc3)nc2n2c3ccccc3nc12 [No. 3, 1,1-dimethylethyl 4-(4-((6-(2,6-dimethylphenyl)-5-oxo-5,6-dihydropyrimido[5′,4′:5,6]pyrimido[1,2-a]-benzimidazol-2-yl)amino)phenyl)-1-piperazinecarboxylate]
COc1cc(Nc2ncc3c(=O)n(-c4c(C)cccc4C)c4nc5ccccc5n4c3n2)ccc1OCCC1CCN(C)CC1 [No. 4, 6-(2,6-dimethylphenyl)-2-((3-(methyloxy)-4-((2-(1-methyl-4-piperidinyl)ethyl)oxy)phenyl)amino)-pyrimido[5′,4′:5,6]pyrimido[1,2-a]benzimidazol-5(6H)-one]
Cc1cccc(C)c1-n1c(=O)c2cnc(Nc3ccc(OCCCN4CCCCC4)c(F)c3)nc2n2c3ccccc3nc12 [No. 5, 6-(2,6-dimethylphenyl)-2-((3-fluoro-4-((3-(1-piperidinyl)propyl)oxy)phenyl)amino)-pyrimido[5′,4′:5,6]pyrimido[1,2-a]benzimidazol-5(6H)-one]
CCN(CC)CCCOc1ccc(Nc2ncc3c(=O)n(-c4c(C)cccc4C)c4nc5ccccc5n4c3n2)cc1F [No. 6, 2-((4-((3-(diethylamino)propyl)oxy)-3-fluorophenyl)-amino)-6-(2,6-dimethylphenyl)pyrimido[5′,4′:5,6]-pyrimido[1,2-a]benzimidazol-5(6H)-one]
Cc1cccc(C)c1-n1c(=O)c2cnc(Nc3ccc(OCCCN4CCN(C)CC4)c(F)c3)nc2n2c3ccccc3nc12 [No. 7, 6-(2,6-dimethylphenyl)-2-((3-fluoro-4-((3-(4-methyl-1-piperazinyl)propyl)oxy)phenyl)amino)-pyrimido[5′,4′:5,6]pyrimido[1,2-a]benzimidazol-5(6H)-one]
Cc1cccc(C)c1-n1c(=O)c2cnc(Nc3ccc(OCCN(C)C)cc3)nc2n2c3ccccc3nc12 [No. 8, 2-((4-((2-(dimethylamino)ethyl)oxy)phenyl)amino)-6-(2,6-dimethylphenyl)pyrimido[5′,4′:5,6]pyrimido[1,2-a]benzimidazol-5(6H)-one]
COc1cc(Nc2ncc3c(=O)n(-c4c(C)cccc4C)c4nc5ccccc5n4c3n2)cc(OCCN2CCN(C)CC2)c1OC [No. 11, 2-((3,4-bis(methyloxy)-5-((2-(4-methyl-1-piperazinyl)ethyl)oxy)phenyl)amino)-6-(2,6-dimethylphenyl)pyrimido[5′,4′:5,6]pyrimido[1,2-a]-benzimidazol-5(6H)-one]
COc1cc(Nc2ncc3c(=O)n(-c4c(C)cccc4C)c4nc5ccccc5n4c3n2)ccc1OCC1CCN(C)CC1 [No. 12, 6-(2,6-dimethylphenyl)-2-((3-(methyloxy)-4-(((1-methyl-4-piperidinyl)methyl)oxy)phenyl)amino)-pyrimido[5′,4′:5,6]pyrimido[1,2-a]benzimidazol-5(6H)-one]
Cc1cc(N2CCN(C)CC2)ccc1Nc1ncc2c(=O)n(-c3c(C)cccc3C)c3nc4ccccc4n3c2n1 [No. 13, 6-(2,6-dimethylphenyl)-2-((2-methyl-4-(4-methyl-1-piperazinyl)phenyl)amino)pyrimido[5′,4′:5,6]-pyrimido[1,2-a]benzimidazol-5(6H)-one]
Cc1cccc(C)c1-n1c(=O)c2cnc(Nc3ccc(OC[C@@H]4CCCN4)cc3)nc2n2c3ccccc3nc12 [No. 14, 6-(2,6-dimethylphenyl)-2-((4-(((2S)-2-pyrrolidinylmethyl)oxy)phenyl)amino)-pyrimido[5′,4′:5,6]pyrimido[1,2-a]benzimidazol-5(6H)-one]
Cc1cc(OCCCN2CCCCC2)ccc1Nc1ncc2c(=O)n(-c3c(C)cccc3C)c3nc4ccccc4n3c2n1 [No. 15, 6-(2,6-dimethylphenyl)-2-((2-methyl-4-((3-(1-piperidinyl)propyl)oxy)phenyl)amino)-pyrimido[5′,4′:5,6]pyrimido[1,2-a]benzimidazol-5(6H)-one]
Cc1cc(OCCCN2CCN(C)CC2)ccc1Nc1ncc2c(=O)n(-c3c(C)cccc3C)c3nc4ccccc4n3c2n1 [No. 16, 6-(2,6-dimethylphenyl)-2-((2-methyl-4-((3-(4-methyl-1-piperazinyl)propyl)oxy)phenyl)amino)-pyrimido[5′,4′:5,6]pyrimido[1,2-a]benzimidazol-5(6H)-one]
COc1cc(Nc2ncc3c(=O)n(-c4c(C)cccc4C)c4nc5ccccc5n4c3n2)cc(OC)c1OC [No. 18, 6-(2,6-dimethylphenyl)-2-((3,4,5-tris(methyloxy)-phenyl)amino)pyrimido[5′,4′:5,6]pyrimido[1,2-a]-benzimidazol-5(6H)-one]
COc1cc(Nc2ncc3c(=O)n(-c4c(C)cccc4C)c4nc5ccccc5n4c3n2)cc(OCCCN2CCN(C)CC2)c1OC [No. 21, 2-((3,4-bis(methyloxy)-5-((3-(4-methyl-1-piperazinyl)propyl)oxy)phenyl)amino)-6-(2,6-dimethylphenyl)pyrimido[5′,4′:5,6]pyrimido[1,2-a]-benzimidazol-5(6H)-one]
COc1cc(Nc2ncc3c(=O)n(-c4c(C)cccc4C)c4nc5ccccc5n4c3n2)cc(OC)c1OCCN1CCN(C)CC1 [No. 22, 2-((3,5-bis(methyloxy)-4-((2-(4-methyl-1-piperazinyl)ethyl)oxy)phenyl)amino)-6-(2,6-dimethylphenyl)pyrimido[5′,4′:5,6]pyrimido[1,2-a]-benzimidazol-5(6H)-one]
Cc1cccc(C)c1-n1c(=O)c2cnc(Nc3ccc(OC[C@H]4CCCN4)cc3)nc2n2c3ccccc3nc12 [No. 23, 6-(2,6-dimethylphenyl)-2-((4-(((2R)-2-pyrrolidinylmethyl)oxy)phenyl)amino)-pyrimido[5′,4′:5,6]pyrimido[1,2-a]benzimidazol-5(6H)-one]
Cc1cccc(C)c1-n1c(=O)c2cnc(Nc3ccc(OCCC4CCN(C)CC4)cc3)nc2n2c3ccccc3nc12 [No. 24, 6-(2,6-dimethylphenyl)-2-((4-((2-(1-methyl-4-piperidinyl)ethyl)oxy)phenyl)amino)-pyrimido[5′,4′:5,6]pyrimido[1,2-a]benzimidazol-5(6H)-one]
COc1cc(Nc2ncc3c(=O)n(-c4c(C)cccc4C)c4nc5ccccc5n4c3n2)cc(OC)c1OCCN1CCCCC1 [No. 25, 2-((3,5-bis(methyloxy)-4-((2-(1-piperidinyl)ethyl)-oxy)phenyl)amino)-6-(2,6-dimethylphenyl)-pyrimido[5′,4′:5,6]pyrimido[1,2-a]benzimidazol-5(6H)-one]
Cc1cccc(C)c1-n1c(=O)c2cnc(Nc3ccc(N4CCN(C)CC4)c(F)c3)nc2n2c3ccccc3nc12 [No. 26, 6-(2,6-dimethylphenyl)-2-((3-fluoro-4-(4-methyl-1-piperazinyl)phenyl)amino)pyrimido[5′,4′:5,6]-pyrimido[1,2-a]benzimidazol-5(6H)-one]
Cc1cccc(C)c1-n1c(=O)c2cnc(Nc3ccc(OCCN4CCCCC4)cc3)nc2n2c3ccccc3nc12 [No. 27, 6-(2,6-dimethylphenyl)-2-((4-((2-(1-piperidinyl)-ethyl)oxy)phenyl)amino)pyrimido[5′,4′:5,6]-pyrimido[1,2-a]benzimidazol-5(6H)-one]
Cc1cccc(C)c1-n1c(=O)c2cnc(Nc3ccc(OC[C@@H]4CCCN4C)cc3)nc2n2c3ccccc3nc12 [No. 28, 6-(2,6-dimethylphenyl)-2-((4-((((2S)-1-methyl-2-pyrrolidinyl)methyl)oxy)phenyl)amino)-pyrimido[5′,4′:5,6]pyrimido[1,2-a]benzimidazol-5(6H)-one]
